Measured values reported in PMC6492180, “Cytome micronucleus assays with a metabolically competent human derived liver cell line (Huh6): A promising approach for routine testing of chemicals?” (Environmental and Molecular Mutagenesis, 2018).
Like-named read-outs stand apart in the source and are kept apart here. Marks after values point to notes of the source that are not given here.

Key:
HepG2 = settings: HepG2, cited from earlier work
[1] = ref IARC (2018); cited from earlier work
Huh6 cells = tested on: Huh6 cells
Description: All experiments were performed in duplicate.
3.8–4.0 × 10^5 cells per well were seeded into 6‐well plates with 3 mL of RPMI (4% FBS) for 12 hr, then dilutions of stock solutions of the diagnostic mutagens were added for different time periods (4, 24, and 48 hr). In each experimental series solvent controls were included. Subsequently, the cells were washed twice with 3.0 mL medium. […] Finally, the cells were washed and trypsinised. Afterwards the cells were washed twice with 8.0 mL RPMI and collected on slides by cytocentrifugation (600 rpm, 5 min). The slides were air dried, fixed, and stained with DiffQuick according to the instructions of the manufacturer. For each experimental point, two cultures were tested per dose. From each culture ≥1,000 BN cells were evaluated under 400‐fold magnification (Nikon Photophot‐FXA, Tokyo, Japan). At least 2,000 binucleated cells were analyzed per dose for the determination of the different nuclear anomalies (MN, NBuds, and NBs).
The experiments were performed as described in the previous chapter. The cells were exposed only to one dose of the different mutagens and were cultivated after the seeding in 6‐well plates which contained 4% or 10% FBS in RPMI, respectively.
Data were evaluated by generalized linear model with Poisson counts. Chi‐square tests for overdispersion were applied. […] P values ≤0.05 were considered statistically significant.
^150-60 000 cells were seeded in 6 well plates with 3 ml RPMI (4% FBS), subsequently different solutions of the test compound (dissolved in medium) were added. After treatment for different time periods, the cells was washed and processed as described in the Material and Method section. […] From each culture 1000 binoculated cells were evaluated. BN-MN – number of micronucleated cells; MN - total number of micronuclei; CBPI – cytokinesis-block proliferation index
^1The experiments were conducted essentially as described in the footnote of Table S1A-I. *p≤0.05

HepaRG = settings: HepaRG; ref Josse et al., 2012; cited from earlier work
Human lymphocytes = settings: Human lymphocytes, cited from earlier work
[2] = 10% FBS, 24 hr treatment, 10 µg/ml

## COS(C)(=O)=O [MMS, Methyl methanesulfonate]
HepG2; ref Natarajan and Darroudi (1991)
  MN induction after 28 hr compared with 1 hr exposure (in words): less pronounced effect
HepG2; ref Valentin‐Severin et al., 2003
  Lowest effective concentration (LOEC) in micronucleus experiments: 11.0 (Valentin‐Severin et al., 2003) μg/mL
[1]
  IARC classification: Methylation of DNA bases; causes gene mutations and CA; IARC: Group 2A
Huh6 cells; 4% FBS
  MN effects after 24 hr (or longer) compared with 4 hr treatment (in words): similar
Huh6 cells; 4% FBS, 4hrs, 6 µg/ml
  BN-MN (number of micronucleated cells): 20.5 ± 3.5 ‰
  Bridges: 0.5 ± 0.7 ‰
  Buds: 20.5 ± 3.5 ‰
  CBPI: 1.9 ± 0.1
  MN (total number of micronuclei): 21.0 ± 4.2 ‰
Huh6 cells; 4% FBS, 4hrs, 10 µg/ml
  BN-MN (number of micronucleated cells): 32.5 ± 3.5* ‰
  Bridges: 3.5 ± 0.7 ‰
  Buds: 37.0 ± 4.2* ‰
  CBPI: 1.7 ± 0.1
  MN (total number of micronuclei): 39.5 ± 0.7* ‰
Huh6 cells; 4% FBS, 4hrs, 40 µg/ml
  BN-MN (number of micronucleated cells): 40.0 ± 7.1* ‰
  Bridges: 3.5 ± 2.1 ‰
  Buds: 42.0 ± 17.0* ‰
  CBPI: 1.5 ± 0.1
  MN (total number of micronuclei): 50.5 ± 7.8 ‰
Huh6 cells; 4% FBS, 24hrs, 0.4 µg/ml
  BN-MN (number of micronucleated cells): 16.5 ± 0.7 ‰
  Bridges: 0.5 ± 0.7 ‰
  Buds: 9.5 ± 0.7 ‰
  CBPI: 1.7 ± 0.0
  MN (total number of micronuclei): 16.5 ± 0.7 ‰
Huh6 cells; 4% FBS, 24hrs, 2 µg/ml
  BN-MN (number of micronucleated cells): 21.5 ± 2.1 ‰
  Bridges: 3.0 ± 0.0 ‰
  Buds: 17.5 ± 0.7 ‰
  CBPI: 1.7 ± 0.0
  MN (total number of micronuclei): 23.5 ± 2.1 ‰
Huh6 cells; 4% FBS, 24hrs, 10 µg/ml
  BN-MN (number of micronucleated cells): 29.5 ± 2.1* ‰
  Bridges: 8.0 ± 1.4 ‰
  Buds: 27.0 ± 1.4* ‰
  CBPI: 1.6 ± 0.0
  MN (total number of micronuclei): 31.0 ± 2.8* ‰
Huh6 cells; 4% FBS, 48 hr
  Change of MN rates after 48 hr treatment (in words): slight decrease
Huh6 cells; 4% FBS, 48hrs, 0.4 µg/ml
  BN-MN (number of micronucleated cells): 18.0 ± 1.4 ‰
  Bridges: 0.5 ± 0.7 ‰
  Buds: 19.0 ± 1.4 ‰
  CBPI: 1.8 ± 0.0
  MN (total number of micronuclei): 20.0 ± 1.4 ‰
Huh6 cells; 4% FBS, 48hrs, 2 µg/ml
  BN-MN (number of micronucleated cells): 20.5 ± 0.7 ‰
  Bridges: 2.5 ± 0.7 ‰
  Buds: 19.5 ± 0.7 ‰
  CBPI: 1.9 ± 0.0
  MN (total number of micronuclei): 23.5 ± 0.7 ‰
Huh6 cells; 4% FBS, 48hrs, 10 µg/ml
  BN-MN (number of micronucleated cells): 24.0 ± 2.8 ‰
  Bridges: 0.5 ± 0.7 ‰
  Buds: 27.0 ± 1.4 ‰
  CBPI: 1.7 ± 0.0
  MN (total number of micronuclei): 25.5 ± 3.5 ‰
Huh6 cells; [2]
  BN-MN (number of micronucleated cells): 27.5 ± 2.1*
  Bridges: 0.0 ± 0.0
  Buds: 20.0 ± 2.8
  CBPI: 1.8 ± 0.0
  MN (total number of micronuclei): 30.0 ± 1.4*
Huh6 cells; 24 hr treatment
  MN frequencies with 10% serum compared with 4% serum (in words): not increased
Huh6 cells; Huh6
  Lowest effective concentration (LOEC) in micronucleus experiments: 10.0 µg/mL
HepaRG
  Lowest effective concentration (LOEC) in micronucleus experiments: 9.9 (Josse et al., 2012) μg/mL
  MN formation with the longer exposure time, treatment for 1 or 7 days (in words): no such effects
Human lymphocytes; ref Andreoli et al., 1999
  Lowest effective concentration (LOEC) in micronucleus experiments: 15.4 µg/mL
Human lymphocytes; ref Fowler et al., 2014
  Lowest effective concentration (LOEC) in micronucleus experiments: 51.0 µg/mL
